Measurements: patent US9018438B2, “Screening method for anticancer drugs” (Kyoto University, priority 2010, dated 2015)
Structures can show the parent of a compound that is named as a salt. Where two headings read alike, the source gives them in different places.

Tests used:
[1] = tested on: Reck gene promoter; assay: SEAP assay in YM3 cells (Reck gene promoter-reporter system); format: cell-based, mouse; conditions: for Activity in Dox: in the presence of Dox (HRAS12V-off); for Induction (fold): relative SEAP activity at optimal conc., YM3 cells, regular medium (Ras-ON)
Experimental: A 4.1-kb upstream region of a mouse Reck gene (Gene ID: 53614, Chromosome 4—NC—000070.5 43884251-43888453) was inserted into a pSEAP2-Basic vector (Clontech) to give a pSEAP-RP4.1 plasmid. […] Biochem Biophys Res Commun 1999; 264: 668-675.). […] TF323-C3 cells can be distributed from one of the inventors Makoto Noda.
YM3 cells were seeded onto 96-well plates at 1×10^4 cells in 100 μl per well and incubation was performed for 5 hours to allow the cells to settle. A compound solution (500 μM, 1 μl) was added to the medium. The employed test compounds were those in the chemical library Prestwick Chemical Library (Prestwick Chemical, Illkirch, France), which is composed of 880 structurally diverse known bioactive compounds, dissolved in nano-pure grade dimethyl sulfoxide (DMSO; Wako). […] A vehicle (DMSO, 1 μl) alone as a negative control and hypothemycin (HPM, 1 mg/ml) as a positive control were added to two wells per plate. Each sample was tested on two different plates (duplicate samples).
After incubation for 48 hours, a portion (10 μl) of the culture supernatant was sampled, incubated at 65° C. (heat treatment) for 30 minutes, and then subjected to the SEAP assay using Great EscAPe™ SEAP Chemiluminescence Detection Kit (Takara Bio). The remaining medium and the cells were subjected to the cell-counting assay using SF reagent. That is, SF reagent (Nacalai) (10 μl per well) was added to the medium, the plates were incubated for 3 hours in a CO2 incubator, and the absorbance at 450 nm (A450) was measured to obtain relative cell numbers. For the SEAP activity data, “SEAP measured value/A450 value” was defined as “SEAP activity per cell”, and the value obtained by dividing “SEAP activity per cell” of each compound by “SEAP activity per cell” of the negative control was defined as “relative SEAP activity”. The mean “relative SEAP activity” of the duplicate samples and the standard error thereof were determined. For the cell number data, the value obtained by dividing the SF measured value of each compound by the SF measured value of the negative control was defined as “relative cell number”, and the mean value of the duplicate samples and the standard error thereof were determined. Samples with a large standard error were tested again. In the experiment, duplicate samples were prepared each in a regular liquid medium and in a liquid medium containing Dox (2 μg/ml), and four mean values (the relative cell number and the relative SEAP activity in the Ras-ON state and the relative cell number and the relative SEAP activity in the Ras-OFF state) were obtained (see FIG. 3).

[2] = tested on: pro-MMP-9; assay: Gelatin zymography of RM72 culture supernatant, MMP-9; format: cell-based, human; conditions: RM72 cells; DSF 16 μM, DXR 210 nM, Gra 32 nM, Pyt 5 μM; 48 hours
Experimental: Gelatin zymography with the culture supernatant of RM72 cells treated with DSF, DXR, Gra, Pyt, pDTC, HPM, and DMSO (vehicle) was performed. Specifically, RM72 cells (2×10^4 cells per well) seeded onto 96-well plates were incubated for 24 hours, and the medium was replaced with a medium containing each of the above compounds (DSF: 16 μM, DXR: 210 nM, Gra: 32 nM, Pyt: 5 μM, HPM: 1 μg/ml, pDTC: 20 μM). After incubated for 48 hours, the medium was replaced with 100 μl of DMEM containing 0.1% FBS and incubated for additional 12 hours. The culture supernatant was harvested, cleared of a solid matter by centrifugation, and analyzed by gelatin zymography in accordance with the method described in literature (Takahashi C, Sheng Z, Horan. T P, Kitayama H, Maki M, Hitomi K, Kitaura Y, Takai S, Sasahara R M, Horimoto A, Ikawa Y, Ratzkin B J, Arakawa T, Noda M. Regulation of matrix metalloproteinase-9 and inhibition of tumor invasion by the membrane-anchored glycoprotein RECK. Proc Natl Acad Sci USA 1998; 95: 13221-13226). The band intensities were normalized against the cell number determined by the SF assay.

[3] = tested on: endogenous RECK; assay: Endogenous RECK mRNA (RT-PCR) and protein (immunoblotting) expression in RM72 cells; format: cell-based, human; conditions: 48 hours, Lyc 1.3 μM, Hr 11 μM
Description: Relative band intensities were obtained by normalization against HPRT1 for the mRNA and against GAPDH for the protein and subsequent division by the normalized value for the cells treated with the vehicle.

[4] = tested on: RM72 cells; assay: IC30 concentration in RM72 cells; format: cell-based, human
[5] = tested on: RM72 cells; format: in vivo; conditions: for Lung metastasis Mean: relative lung metastasis; for Lung metastasis Mean / Tumor Mean: vehicle = 100; for Tumor Mean: relative tumor size; for anticancer activity / cancer metastasis suppressing activity: summary statement
Experimental: RM72 cells (3×10^6 cells) suspended in 0.1 ml of PBS were subcutaneously injected into the right posterior flank of Balb/c nude mice (6 weeks old, male, Charles River). […]. After 14-day treatment, the mice were anesthetized and their bioluminescence was recorded by the method described below. After the whole-body recording of the bioluminescence, the lung was resected, washed with PBS (−), and subjected to bioluminescence recording. The tumor size (length×width×height) was measured once a week. Statistical significance was assessed by Student's t-test.
Mice under anesthesia were intraperitoneally injected with 75 mg/kg of d-luciferin dissolved in PBS (−). Bioluminescence images were acquired with IVIS ImagingSystem (Xenogen) at 5 minutes after the injection (Wang S, El-Deiry W S. Requirement of p53 targets in chemosensitization of colonic carcinoma to death ligand therapy. Proc Natl Acad Sci USA 2003; 100: 15095-15100; Minn A J, Kang Y, Serganova I, Gupta G P, Giri D D, Doubrovin M, Ponomarev V, Gerald W L, Blasberg R, Massague J. Distinct organ-specific metastatic potential of individual breast cancer cells and primary tumors. J Clin Invest 2005; 115: 44-55). The photons emitted from the whole bodies or the isolated organs were collected for a period of 60 seconds and integrated. The images were analyzed using Living Image software (Xenogen).
The anti-tumorigenic and anti-metastatic activities of Pyt, Hr, Gra and Lyc were investigated with the same protocol as in Example 9. The experiment was conducted in two batches: Experiment 1 for three groups of a Pyt group, a Hr group and a vehicle group and Experiment 2 for three groups of a Gra group, a Lyc group and a vehicle group. The doses of the test compounds were set at two different quantities considered to be appropriate based on literature (see Tables 3 and 4).

[6] = tested on: Reck gene promoter; assay: SEAP assay in YM3 cells (Reck gene promoter-reporter system); format: cell-based, mouse; conditions: determined by dose-response assays (0.0617, 0.185, 0.556, 1.67, 5.00 μM) using YM3 cells

COc1cccc2c1C(=O)c1c(O)c3c(c(O)c1C2=O)C[C@@](O)(C(=O)CO)C[C@@H]3O[C@H]1C[C@H](N)[C@H](O)[C@H](C)O1 [Doxorubicin hydrochloride]
Activity in Dox [1]: + (more than 1.9-fold) | Induction (fold) [1]: 8.55 fold | pro-MMP-9 level in the culture supernatant [2]: reduced

COc1ccc2c(c1)[nH]c1c(C)nccc12.Cl [Harmine hydrochloride]
Activity in Dox [1]: ± (between 1.9 and 1.5-fold) | Induction (fold) [1]: 2.44 fold | expression of RECK mRNA [3]: increased the expression | expression of RECK protein [3]: increased the expression | IC30 [4]: 11 µM | anti-metastatic activity ([5]; both doses): strong | anti-tumorigenic activity ([5]; both doses): strong | Lung metastasis Mean ([5]; 3 mg/kg/day): 22.0 | Lung metastasis Mean ([5]; 10 mg/kg/day): 25.7 | Tumor Mean ([5]; 3 mg/kg/day): 56.4 | Tumor Mean ([5]; 10 mg/kg/day): 47.2 | anticancer activity [5]: confirmed | cancer metastasis suppressing activity [5]: confirmed

Cl.O[C@H]1[C@H]2c3cc4c(cc3CN3CCC(=C[C@@H]1O)[C@H]23)OCO4 [Lycorine hydrochloride]
Activity in Dox [1]: + (more than 1.9-fold) | Induction (fold) [1]: 3.44 fold | expression of RECK mRNA [3]: increased the expression | expression of RECK protein [3]: reduced the expression | IC30 [4]: 1.3 µM | anti-tumorigenic activity ([5]; both doses): strong | anti-metastatic activity ([5]; high dose): strong | anti-metastatic activity ([5]; low dose): weak | Lung metastasis Mean ([5]; 2.5 mg/kg/day): 65.5 | Lung metastasis Mean ([5]; 7.5 mg/kg/day): 17.7 | Tumor Mean ([5]; 2.5 mg/kg/day): 69.7 | Tumor Mean ([5]; 7.5 mg/kg/day): 70.9 | anticancer activity [5]: confirmed | cancer metastasis suppressing activity [5]: confirmed | Optimal conc. [6]: 5.00 µM

Gramicidin
Optimal conc. [1]: 5.00 µM | Activity in Dox [1]: + (more than 1.9-fold) | Induction (fold) [1]: 7.30 fold | pro-MMP-9 level in the culture supernatant [2]: reduced | anti-metastatic activity ([5]; both doses): strong | anti-tumorigenic activity ([5]; both doses): weak | Lung metastasis Mean ([5]; 0.03 mg/kg/day): 42.0 | Lung metastasis Mean ([5]; 0.1 mg/kg/day): 27.4 | Tumor Mean ([5]; 0.03 mg/kg/day): 89.3 | Tumor Mean ([5]; 0.1 mg/kg/day): 83.1 | anticancer activity [5]: confirmed | cancer metastasis suppressing activity [5]: confirmed
